Source: US11931424B2, “Combination MCL-1 inhibitors with anti-body drug conjugates” (Gilead Sciences, Inc., priority 2021, dated 2024)

System: panel of breast cancer cell lines
Assay: Compound A with targeted agents and chemotherapies, 72-hour in vitro proliferation assays
Assay type: cell-based
Conditions: 72-hour proliferation
[1] = AU565 cell line, compound A × partner
[2] = BT-20 cell line, compound A × partner
[3] = BT-474 cell line, compound A × partner
[4] = BT-549 cell line, compound A × partner
[5] = CAL-51 cell line, compound A × partner
[6] = CAL-85-1 cell line, compound A × partner
[7] = CAL-120 cell line, compound A × partner
[8] = CAL-148 cell line, compound A × partner
[9] = CAMA-1 cell line, compound A × partner
[10] = DU-4475 cell line, compound A × partner
[11] = EVSA-T cell line, compound A × partner
[12] = MCF7 cells, Compound A × partner agent
[13] = MDA-MB-175-VII cells, Compound A × partner agent
[14] = MDA-MB-231 cells, Compound A × partner agent
[15] = MDA-MB-361 cells, Compound A × partner agent
[16] = MDA-MB-436 cells, Compound A × partner agent
[17] = MDA-MB-453 cells, Compound A × partner agent
[18] = MDA-MB-468 cells, Compound A × partner agent
[19] = SK-BR-3 cells, Compound A × partner agent
[20] = SUM159PT cells, combination of compound A with the named agent
[21] = T47D cells, combination of compound A with the named agent
[22] = ZR-75-1 cells, combination of compound A with the named agent
[23] = ZR-75-30 cells, combination of compound A with the named agent

SMILES: CO[C@H]1C[C@@H]2CC[C@@H](C)[C@@](O)(O2)C(=O)C(=O)N2CCCC[C@H]2C(=O)O[C@H]([C@H](C)C[C@@H]2CC[C@@H](OCCO)[C@H](OC)C2)CC(=O)[C@H](C)/C=C(\C)[C@@H](O)[C@@H](OC)C(=O)[C@H](C)C[C@H](C)/C=C/C=C/C=C/1C [Everolimus]
- Bliss Volume [1]: 5.68
- HSA volume [1]: 2.64
- Loewe Volume [1]: 3.01
- Synergy Score [1]: 3.02
- Bliss Volume [2]: 8.37
- HSA volume [2]: 8.23
- Loewe Volume [2]: 7.02
- Synergy Score [2]: 11.08
- Bliss Volume [3]: 3.26
- HSA volume [3]: −1.26
- Loewe Volume [3]: −2.71
- Synergy Score [3]: 2.41
- Bliss Volume [4]: 5.93
- HSA volume [4]: 8.22
- Loewe Volume [4]: 7.87
- Synergy Score [4]: 7.35
- Bliss Volume [5]: −2.55
- HSA volume [5]: 0.45
- Loewe Volume [5]: 0.41
- Synergy Score [5]: 1.34
- Bliss Volume [6]: 10.37
- HSA volume [6]: 14.41
- Loewe Volume [6]: 13.60
- Synergy Score [6]: 16.26
- Bliss Volume [7]: −2.79
- HSA volume [7]: −1.61
- Loewe Volume [7]: −1.62
- Synergy Score [7]: 0.53
- Bliss Volume [8]: 5.67
- HSA volume [8]: 9.58
- Loewe Volume [8]: 8.56
- Synergy Score [8]: 18.16
- Bliss Volume [9]: 10.06
- HSA volume [9]: 2.71
- Loewe Volume [9]: 3.20
- Synergy Score [9]: 7.90
- Bliss Volume [10]: 4.29
- HSA volume [10]: 1.94
- Loewe Volume [10]: 0.97
- Synergy Score [10]: 2.43
- Bliss Volume [11]: 10.56
- HSA volume [11]: −0.76
- Loewe Volume [11]: −1.22
- Synergy Score [11]: 1.85
- Bliss Volume (HCC38, compound A × partner): −6.70
- HSA volume (HCC38, compound A × partner): −1.96
- Loewe Volume (HCC38, compound A × partner): −2.56
- Synergy Score (HCC38, compound A × partner): 2.18
- Bliss Volume (HCC70, compound A × partner): 9.56
- HSA volume (HCC70, compound A × partner): 8.83
- Loewe Volume (HCC70, compound A × partner): 6.84
- Synergy Score (HCC70, compound A × partner): 11.30
- Bliss Volume (HCC1143, compound A × partner): 8.68
- HSA volume (HCC1143, compound A × partner): 8.45
- Loewe Volume (HCC1143, compound A × partner): 10.21
- Synergy Score (HCC1143, compound A × partner): 9.36
- Bliss Volume (HCC1569, compound A × partner): 2.35
- HSA volume (HCC1569, compound A × partner): 5.10
- Loewe Volume (HCC1569, compound A × partner): 4.65
- Synergy Score (HCC1569, compound A × partner): 3.45
- Bliss Volume (HCC1806, compound A × partner): 5.19
- HSA volume (HCC1806, compound A × partner): 2.88
- Loewe Volume (HCC1806, compound A × partner): 5.59
- Synergy Score (HCC1806, compound A × partner): 2.52
- Bliss Volume (HCC1937, compound A × partner): 1.96
- HSA volume (HCC1937, compound A × partner): 3.68
- Loewe Volume (HCC1937, compound A × partner): 4.63
- Synergy Score (HCC1937, compound A × partner): 4.89
- Bliss Volume (HCC1954, compound A × partner): 20.04
- HSA volume (HCC1954, compound A × partner): 23.41
- Loewe Volume (HCC1954, compound A × partner): 21.71
- Synergy Score (HCC1954, compound A × partner): 36.09
- Bliss Volume (HCC2218, compound A × partner): −0.77
- HSA volume (HCC2218, compound A × partner): −0.63
- Loewe Volume (HCC2218, compound A × partner): −2.03
- Synergy Score (HCC2218, compound A × partner): 3.37
- Bliss Volume (HDQ-P1, compound A × partner): 6.97
- HSA volume (HDQ-P1, compound A × partner): −1.39
- Loewe Volume (HDQ-P1, compound A × partner): 6.48
- Synergy Score (HDQ-P1, compound A × partner): 2.04
- Bliss Volume (HMC-1-8, compound A × partner): 9.19
- HSA volume (HMC-1-8, compound A × partner): 5.60
- Loewe Volume (HMC-1-8, compound A × partner): 5.97
- Synergy Score (HMC-1-8, compound A × partner): 9.41
- Bliss Volume (JIMT-1, compound A × partner): 5.29
- HSA volume (JIMT-1, compound A × partner): 2.41
- Loewe Volume (JIMT-1, compound A × partner): 1.96
- Synergy Score (JIMT-1, compound A × partner): 1.56
- Best CI (KPL-1, compound A × partner): 0.45
- Best CI Level (KPL-1, compound A × partner): 95
- Bliss Volume (KPL-1, compound A × partner): 2.85
- HSA volume (KPL-1, compound A × partner): 5.14
- Loewe Volume (KPL-1, compound A × partner): 4.93
- Synergy Score (KPL-1, compound A × partner): 6.00
- Bliss Volume [12]: 6.88
- HSA volume [12]: 7.73
- Loewe Volume [12]: 6.93
- Synergy Score [12]: 9.72
- Bliss Volume [13]: 9.10
- HSA volume [13]: 4.72
- Loewe Volume [13]: 4.62
- Synergy Score [13]: 10.26
- Bliss Volume [14]: 0.30
- HSA volume [14]: 2.64
- Loewe Volume [14]: 3.33
- Synergy Score [14]: 2.06
- Bliss Volume [15]: 5.72
- HSA volume [15]: 4.93
- Loewe Volume [15]: 3.91
- Synergy Score [15]: 8.70
- Bliss Volume [16]: 2.45
- HSA volume [16]: 4.01
- Loewe Volume [16]: 3.66
- Synergy Score [16]: 2.25
- Bliss Volume [17]: 3.87
- HSA volume [17]: 0.04
- Loewe Volume [17]: −0.98
- Synergy Score [17]: 5.75
- Bliss Volume [18]: 11.63
- HSA volume [18]: 9.14
- Loewe Volume [18]: 7.97
- Synergy Score [18]: 15.60
- Bliss Volume [19]: 7.76
- HSA volume [19]: 3.46
- Loewe Volume [19]: 2.55
- Synergy Score [19]: 4.58
- Bliss Volume [20]: 0.61
- HSA volume [20]: 1.27
- Loewe Volume [20]: 0.66
- Synergy Score [20]: 1.12
- Bliss Volume [21]: −0.21
- HSA volume [21]: 2.87
- Loewe Volume [21]: 2.69
- Synergy Score [21]: 3.70
- Bliss Volume [22]: 3.52
- HSA volume [22]: 5.12
- Loewe Volume [22]: 4.67
- Synergy Score [22]: 5.68
- Bliss Volume [23]: 3.82
- HSA volume [23]: 4.76
- Loewe Volume [23]: 4.25
- Synergy Score [23]: 7.22
